Tests used:
[1] = tested on: pAKT in FaDu xenograft (Hypopharynx squamous cell carcinoma); assay: pAKT in tumor tissue of FaDu xenograft (FIG. 2); type: in vivo; conditions: Compound A at 30 mg daily
UPCISCC153 = assay: Cancer cell growth inhibition, cell counting after 5 days; type: cell-based; conditions: 120 h
Experimental: (§1) Data was compared with untreated controls. […] Experiments were carried out in duplicate. The table below details the results.

UMSCC5 = assay: as above; type: cell-based; conditions: UM-SCC-5, 120 h
Experimental: as §1

UMSCC1 = assay: as above; type: cell-based; conditions: Homo sapiens, 120 h
Experimental: as §1

UMSCC11A = assay: as above; type: cell-based; conditions: 120 h
Experimental: as §1

[2] = Concentration delivered to patients; type: in vivo, human; conditions: patients treated at 100 mg daily; expected
Text: (§2) (Red=KRAS mutant=UMSCC-74A. Yellow=PI3KCA mutant=CAL33).

[3] = tested on: head and neck cancer cell lines; assay: Sensitivity of head and neck cancer cell line panels to Compound A (FIG. 1); type: cell-based; conditions: majority of the cell lines of two independently tested panels
Text: as §2

concentration delivered to patients [2] | IC50 [3] | Structure (SMILES) | pAKT in tumor tissue [1] | inhibition at 1 µM (UPCISCC153; Compound A 1 μM) | inhibition at 1 µM (UMSCC5; Compound A 1 μM) | inhibition at 1 µM (UMSCC1; Compound A 1 μM) | inhibition at 1 µM (UMSCC11A; Compound A 1 μM) | inhibition at 0.001 µg/mL (UPCISCC153; paclitaxel 1 ng/ml) | inhibition at 0.001 µg/mL (UMSCC5; paclitaxel 1 ng/ml) | inhibition at 0.001 µg/mL (UMSCC1; paclitaxel 1 ng/ml) | inhibition at 0.001 µg/mL (UMSCC11A; paclitaxel 1 ng/ml)
around 1 μM | < 1 µM | Nc1cc(C(F)(F)F)c(-c2cc(N3CCOCC3)nc(N3CCOCC3)n2)cn1 [Compound A, 5-(2,6-di-morpholin-4-yl-pyrimidin-4-yl)-4-trifluoromethyl-pyridin-2-ylamine] | inhibition of pAKT | 15% | 28% | 21.2% | 21.9% |  |  |  | 
 |  | CC(=O)O[C@H]1C(=O)[C@@]2(C)[C@H]([C@H](OC(=O)c3ccccc3)[C@]3(O)C[C@H](OC(=O)[C@H](O)[C@@H](NC(=O)c4ccccc4)c4ccccc4)C(C)=C1C3(C)C)[C@]1(OC(C)=O)CO[C@@H]1C[C@@H]2O [Paclitaxel, 5β,20-Epoxy1,2a,4,7β, 10β, 13a-hexahydroxytax-11-en-9-one 4, 10,-diacetate 2-benzoate 13-ester with (2R, 3S)—N-benzoyl-3-phenylisoserine, reference compound] |  |  |  |  |  | 0% | 7.6% | 4.6% | 3.13%

Reference: patent US9913846B2, “Combination of a PI3 kinase inhibitor with pacitaxel for use in the treatment or prevention of a cancer of the head and neck” (NOVARTIS AG, priority 2013, dated 2018)
